Laboratory results reported in PubChem BioAssay AID1963839 (Molecular Pharmacology Branch, DTP, NCI, 2024).

Test system: 817829-284-R-J1-PDC complex spheroid viability
Experiment: Anticancer human tumor 817829-284-R-J1-PDC patient-derived colon adenocarcinoma cell line growth inhibition [POLQ]
Settings: for IC50: curve of first compound; for viability, T/C: stronger effect = lower value
In short: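 PDC + HUVEC + MSC complex spheroids; POLQ inhibitors ± partner drugs; top conc. at/near clinical Cmax, else 10 microM (SN-38 1 microM), half-log dilutions; 37 degrees C, 5% CO2.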

[1] = second compound 0.0316 µM, first compound 0.0316 µM
[2] = second compound 0.0316 µM, first compound 0.1 µM
[3] = second compound 0.0316 µM, first compound 0.316 µM
[4] = second compound 0.0316 µM, first compound 1 µM
[5] = second compound 0.0316 µM, first compound 3.16 µM
[6] = second compound 0.0316 µM, first compound 10 µM
[7] = second compound 0.1 µM, first compound 0.0316 µM
[8] = second compound 0.1 µM, first compound 0.1 µM
[9] = second compound 0.1 µM, first compound 0.316 µM
[10] = second compound 0.1 µM, first compound 1 µM
[11] = second compound 0.1 µM, first compound 3.16 µM
[12] = second compound 0.1 µM, first compound 10 µM
[13] = second compound 0.316 µM, first compound 0.0316 µM
[14] = second compound 0.316 µM, first compound 0.1 µM
[15] = second compound 0.316 µM, first compound 0.316 µM
[16] = second compound 0.316 µM, first compound 1 µM
[17] = second compound 0.316 µM, first compound 3.16 µM
[18] = second compound 0.316 µM, first compound 10 µM
[19] = second compound 1 µM, first compound 0.0316 µM
[20] = second compound 1 µM, first compound 0.1 µM
[21] = second compound 1 µM, first compound 0.316 µM
[22] = second compound 1 µM, first compound 1 µM
[23] = second compound 1 µM, first compound 3.16 µM
[24] = second compound 1 µM, first compound 10 µM
[25] = second compound 3.16 µM, first compound 0.0316 µM
[26] = second compound 3.16 µM, first compound 0.1 µM
[27] = second compound 3.16 µM, first compound 0.316 µM
[28] = second compound 3.16 µM, first compound 1 µM
[29] = second compound 3.16 µM, first compound 3.16 µM
[30] = second compound 3.16 µM, first compound 10 µM
[31] = second compound 10 µM, first compound 0.0316 µM
[32] = second compound 10 µM, first compound 0.1 µM
[33] = second compound 10 µM, first compound 0.316 µM
[34] = second compound 10 µM, first compound 1 µM
[35] = second compound 10 µM, first compound 3.16 µM
[36] = second compound 10 µM, first compound 10 µM
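Further: spheroids exposed to compounds for 7 days.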
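Wherever viability, T/C is given: 100% = DMSO vehicle-treated spheroids.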

Compound `CCc1cc2c(N3CCc4c(cc(Cn5ccnc5)cc4-c4cn(C)nc4C(F)(F)F)C3=O)ccnc2c(OC)n1` + Nc1ccc(C#CCN(C(=O)Cc2ncc(C(F)(F)F)cc2C(F)(F)F)c2ccc(F)cc2)nn1 has an IC50 (second compound 0.0316 µM) of 2.59 µM, an IC50 (second compound 0.1 µM) of 2.41 µM and an IC50 (second compound 0.316 µM) of 2.61 µM. The IC50 (second compound 1 µM) was 2.33 µM, the IC50 (second compound 3.16 µM) was 3.44 µM and the IC50 (second compound 10 µM) was 2.63 µM. For the same compound, the viability, T/C [1] was 84.2%, the viability, T/C [2] was 77.9% and the viability, T/C [3] was 84.1%. It also gave a viability, T/C [4] of 76.3%, a viability, T/C [5] of 44.5% and a viability, T/C [6] of 29.7%. It also gave a viability, T/C [7] of 83.7%, a viability, T/C [8] of 82.7% and a viability, T/C [9] of 78.2%. It also gave a viability, T/C [10] of 67.9%, a viability, T/C [11] of 44% and a viability, T/C [12] of 37.5%. It also gave a viability, T/C [13] of 86.3%, a viability, T/C [14] of 74.6% and a viability, T/C [15] of 64%. The viability, T/C [16] was 64.8%, the viability, T/C [17] was 49% and the viability, T/C [18] was 34%. For the same compound, the viability, T/C [19] was 83.6%, the viability, T/C [20] was 70.5% and the viability, T/C [21] was 74.8%. For the same compound, the viability, T/C [22] was 60.7%, the viability, T/C [23] was 44.8% and the viability, T/C [24] was 31%. The viability, T/C [25] was 97.5%, the viability, T/C [26] was 95% and the viability, T/C [27] was 72.7%. The viability, T/C [28] was 68.8%, the viability, T/C [29] was 52.1% and the viability, T/C [30] was 33.9%. The viability, T/C [31] was 83.8%, the viability, T/C [32] was 84% and the viability, T/C [33] was 69.7%. The viability, T/C [34] was 67.3%, the viability, T/C [35] was 45.5% and the viability, T/C [36] was 31.4%.

Compound `COc1cc2cc(C(=O)CCC(=O)O)sc2cc1OC` + Cc1cccc(N(C)C(=O)C2C(O)CCN2c2nc(C)cc(C(F)(F)F)c2C#N)c1 has an IC50 (second compound 0.0316 µM) of over 10 µM, an IC50 (second compound 0.1 µM) of over 10 µM and an IC50 (second compound 0.316 µM) of over 10 µM. It also gave an IC50 (second compound 1 µM) of over 10 µM, an IC50 (second compound 3.16 µM) of over 10 µM and an IC50 (second compound 10 µM) of over 10 µM. The viability, T/C [1] was 100%, the viability, T/C [2] was 93.1% and the viability, T/C [3] was 89%. The viability, T/C [4] was 88.5%, the viability, T/C [5] was 114% and the viability, T/C [6] was 96.2%. For the same compound, the viability, T/C [7] was 113%, the viability, T/C [8] was 97% and the viability, T/C [9] was 99.5%. It also gave a viability, T/C [10] of 105%, a viability, T/C [11] of 98.7% and a viability, T/C [12] of 102%. It also gave a viability, T/C [13] of 101%, a viability, T/C [14] of 90.5% and a viability, T/C [15] of 99%. It also gave a viability, T/C [16] of 108%, a viability, T/C [17] of 107% and a viability, T/C [18] of 108%. The viability, T/C [19] was 102%, the viability, T/C [20] was 88.2% and the viability, T/C [21] was 96.7%. The viability, T/C [22] was 116%, the viability, T/C [23] was 105% and the viability, T/C [24] was 104%. It also gave a viability, T/C [25] of 91.1%, a viability, T/C [26] of 111% and a viability, T/C [27] of 117%. For the same compound, the viability, T/C [28] was 93.8%, the viability, T/C [29] was 100% and the viability, T/C [30] was 96.9%. The viability, T/C [31] was 87.7%, the viability, T/C [32] was 86.8% and the viability, T/C [33] was 112%. It also gave a viability, T/C [34] of 89.6%, a viability, T/C [35] of 109% and a viability, T/C [36] of 89.6%.

For `CC1COCCN1c1cc(C2(O)CC3CCC(C2)O3)c2cnn(-c3ccn[nH]3)c2n1` (stereo not drawn) + Nc1ccc(C#CCN(C(=O)Cc2ncc(C(F)(F)F)cc2C(F)(F)F)c2ccc(F)cc2)nn1, the IC50 (second compound 0.0316 µM) was under 0.0316 µM, the IC50 (second compound 0.1 µM) was under 0.0316 µM and the IC50 (second compound 0.316 µM) was under 0.0316 µM. For the same compound, the IC50 (second compound 1 µM) was under 0.0316 µM, the IC50 (second compound 3.16 µM) was under 0.0316 µM and the IC50 (second compound 10 µM) was under 0.0316 µM. For the same compound, the viability, T/C [1] was 26.3%, the viability, T/C [2] was 7.07% and the viability, T/C [3] was 4.65%. It also gave a viability, T/C [4] of 3.5%, a viability, T/C [5] of 3.48% and a viability, T/C [6] of 3.16%. The viability, T/C [7] was 36%, the viability, T/C [8] was 9.38% and the viability, T/C [9] was 4.42%. The viability, T/C [10] was 3.56%, the viability, T/C [11] was 2.98% and the viability, T/C [12] was 2.77%. It also gave a viability, T/C [13] of 25.9%, a viability, T/C [14] of 10.1% and a viability, T/C [15] of 4.5%. It also gave a viability, T/C [16] of 3.48%, a viability, T/C [17] of 3.21% and a viability, T/C [18] of 2.42%. For the same compound, the viability, T/C [19] was 29.4%, the viability, T/C [20] was 10.3% and the viability, T/C [21] was 4.41%. The viability, T/C [22] was 3.09%, the viability, T/C [23] was 2.69% and the viability, T/C [24] was 2.28%. The viability, T/C [25] was 29.5%, the viability, T/C [26] was 7.74% and the viability, T/C [27] was 3.99%. For the same compound, the viability, T/C [28] was 2.88%, the viability, T/C [29] was 2.96% and the viability, T/C [30] was 2.33%. For the same compound, the viability, T/C [31] was 22%, the viability, T/C [32] was 8.66% and the viability, T/C [33] was 3.65%. For the same compound, the viability, T/C [34] was 3.1%, the viability, T/C [35] was 2.74% and the viability, T/C [36] was 2.24%.

`CCc1cc2c(N3CCc4c(cc(Cn5ccnc5)cc4-c4cn(C)nc4C(F)(F)F)C3=O)ccnc2c(OC)n1` + Cc1cccc(N(C)C(=O)C2C(O)CCN2c2nc(C)cc(C(F)(F)F)c2C#N)c1 showed an IC50 (second compound 0.0316 µM) of 3.28 µM, an IC50 (second compound 0.1 µM) of 4.18 µM and an IC50 (second compound 0.316 µM) of 4.63 µM. The IC50 (second compound 1 µM) was 2.77 µM, the IC50 (second compound 3.16 µM) was 2.43 µM and the IC50 (second compound 10 µM) was 1.57 µM. For the same compound, the viability, T/C [1] was 84%, the viability, T/C [2] was 73.8% and the viability, T/C [3] was 67.4%. It also gave a viability, T/C [4] of 64.2%, a viability, T/C [5] of 49.7% and a viability, T/C [6] of 38.4%. For the same compound, the viability, T/C [7] was 87.5%, the viability, T/C [8] was 96% and the viability, T/C [9] was 72.7%. For the same compound, the viability, T/C [10] was 77.2%, the viability, T/C [11] was 54.7% and the viability, T/C [12] was 31.2%. For the same compound, the viability, T/C [13] was 95.5%, the viability, T/C [14] was 87.9% and the viability, T/C [15] was 76.9%. For the same compound, the viability, T/C [16] was 73.8%, the viability, T/C [17] was 51.3% and the viability, T/C [18] was 41.1%. It also gave a viability, T/C [19] of 90.6%, a viability, T/C [20] of 82.2% and a viability, T/C [21] of 76.8%. It also gave a viability, T/C [22] of 65.4%, a viability, T/C [23] of 47.1% and a viability, T/C [24] of 29.3%. The viability, T/C [25] was 84.9%, the viability, T/C [26] was 94.9% and the viability, T/C [27] was 86.8%. It also gave a viability, T/C [28] of 61.1%, a viability, T/C [29] of 50.1% and a viability, T/C [30] of 32.8%. The viability, T/C [31] was 92.9%, the viability, T/C [32] was 71.8% and the viability, T/C [33] was 69.1%. For the same compound, the viability, T/C [34] was 56.8%, the viability, T/C [35] was 42.1% and the viability, T/C [36] was 30.5%.
